SMILES strings stand for the structures.

This series in a line: SuFEx S-O bond formation: di-sulfonimidoyl fluoride (mixture of diastereomers) + diphenol (1:1), DBU 2.1 equiv, [1+1] macrocyclisation, one pot. The conditions noted are these: the molecule shown is the open-chain precursor, MeCN, 20.0 mM, 50.0 °C, 3.0 h.

Turning to `Cc1ccc(S(=O)(F)=NC(=O)c2ccc(-c3ccc(C(=O)N=S(=O)(Oc4ccccc4CNCCCCCCNCc4ccccc4O)c4ccc(C)cc4)cc3)cc2)cc1` (stereo not shown) [3s], where the note is “30-membered ring”, the ring closure, isolated yield was 80%.

`Cc1ccc(S(=O)(F)=NC(=O)c2ccc(Oc3ccc(C(=O)N=S(=O)(Oc4ccc(OCCOc5ccc(O)cc5)cc4)c4ccc(C)cc4)cc3)cc2)cc1` (stereo not shown) [3l]: the ring closure, isolated yield (29-membered ring) amounted to 67%.

For `Cc1ccc(S(=O)(F)=NC(=O)c2ccc(C(=O)N=S(=O)(Oc3ccccc3CNCCCCCCNCc3ccccc3O)c3ccc(C)cc3)cc2)cc1` (stereo not shown) [3e], the ring closure, isolated yield (26-membered ring) was 91%.

In the case of `Cc1ccc(S(=O)(F)=NC(=O)c2cccc(C(=O)N=S(=O)(Oc3ccc(SSc4ccc(O)cc4)cc3)c3ccc(C)cc3)c2)cc1` (stereo not shown) [3n], the ring closure, isolated yield (21-membered ring) was 72%.

With `Cc1ccc(S(=O)(F)=NC(=O)c2cccc(C(=O)N=S(=O)(Oc3ccc(OCCOc4ccc(O)cc4)cc3)c3ccc(C)cc3)c2)cc1` (stereo not shown) [3q], the ring closure, isolated yield (23-membered ring) is 64%.

Turning to `Cc1ccc(S(=O)(F)=NC(=O)c2cccc(C(=O)N=S(=O)(Oc3cccc(Oc4cccc(Oc5cccc(O)c5)c4)c3)c3ccc(C)cc3)c2)cc1` (stereo not shown) [3p], the ring closure, isolated yield (22-membered ring) worked out at 69%.

Consider `Cc1ccc(S(=O)(F)=NC(=O)c2ccc(-c3ccc(C(=O)N=S(=O)(Oc4ccc(C(C)(C)c5cccc(C(C)(C)c6ccc(O)cc6)c5)cc4)c4ccc(C)cc4)cc3)cc2)cc1` (stereo not shown) [3t], for which the ring closure, isolated yield (29-membered ring) amounted to 90%.

`Cc1ccc(S(=O)(F)=NC(=O)c2cccc(C(=O)N=S(=O)(Oc3ccc(SSc4ccc(O)cc4)cc3)c3ccc(C)cc3)n2)cc1` (stereo not shown) [3r]: the ring closure, isolated yield (21-membered ring) came to 91%.

For the compound `Cc1ccc(S(=O)(F)=NC(=O)c2ccc(C(=O)N=S(=O)(Oc3ccccc3CNCCNCc3ccccc3O)c3ccc(C)cc3)cc2)cc1` (stereo not shown) [3f], the ring closure, isolated yield (22-membered ring) worked out at 87%.

`Cc1ccc(S(=O)(F)=NC(=O)c2ccc(Oc3ccc(C(=O)N=S(=O)(Oc4ccc(SSc5ccc(O)cc5)cc4)c4ccc(C)cc4)cc3)cc2)cc1` (stereo not shown) [3i]: the ring closure, isolated yield (27-membered ring) came to 91%.

For the compound `Cc1ccc(S(=O)(F)=NC(=O)c2ccc(Oc3ccc(C(=O)N=S(=O)(Oc4cccc(Oc5cccc(Oc6cccc(O)c6)c5)c4)c4ccc(C)cc4)cc3)cc2)cc1` (stereo not shown) [3k], the ring closure, isolated yield (28-membered ring) came out at 88%.

As for `Cc1ccc(S(=O)(F)=NC(=O)c2cccc(C(=O)N=S(=O)(Oc3ccc(C(C)(C)c4cccc(C(C)(C)c5ccc(O)cc5)c4)cc3)c3ccc(C)cc3)c2)cc1` (stereo not shown) [3o (isophthaloyl)], the ring closure, isolated yield (24-membered ring) was determined as 70%.

As for `CCC(c1ccc(O)cc1)C(CC)c1ccc(OS(=O)(=NC(=O)c2ccc(C(=O)N=S(=O)(F)c3ccc(C)cc3)cc2)c2ccc(C)cc2)cc1` (stereo not shown) [3b], the ring closure, isolated yield (22-membered ring) was determined as 61%.

Values taken from PMC10660663.
